According to article PMC3602246 (BMC Pharmacology & Toxicology, 2013):
“Also recorded” adds a separate entry of the source. Read-outs that look alike come from different tables or passages of the source.

Legend:
[1] = molecular target: DOR; conditions: cited from earlier work; for Ki: read-out: Ki, affinity binding to the DOR
[2] = molecular target: KOR; conditions: cited from earlier work; for Ki: read-out: Ki, affinity binding to the KOR
[3] = molecular target: MOR; conditions: cited from earlier work; for Ki: read-out: Ki, affinity binding to the MOR
[4] = molecular target: T1, human mu opioid receptor (MOR1) (Homo sapiens, UniProt P35372); assay type: cell-based
T1 construct: FLAG; expressed in transfected cells

[5] = molecular target: T2, human kappa opioid receptor (Homo sapiens, UniProt P41145); assay type: cell-based
T2 construct: FLAG; expressed in transfected cells

[6] = molecular target: T1, human mu opioid receptor (MOR1); assay type: cell-based; conditions: HEK-MOR; ligand 10 μM, 1 hr; DAMGO 10 μM
[7] = molecular target: T2, human kappa opioid receptor; assay type: cell-based; remark: listed apart in the source
[8] = molecular target: T2, human kappa opioid receptor; assay type: cell-based; conditions: read-out: IC50, single phase inhibition of BRL-52537 DMR
[9] = read-out: EC50, first phase of biphasic DMR dose response
[10] = read-out: EC50, second phase of biphasic DMR dose response

T2 sequence (P41145 whole entry): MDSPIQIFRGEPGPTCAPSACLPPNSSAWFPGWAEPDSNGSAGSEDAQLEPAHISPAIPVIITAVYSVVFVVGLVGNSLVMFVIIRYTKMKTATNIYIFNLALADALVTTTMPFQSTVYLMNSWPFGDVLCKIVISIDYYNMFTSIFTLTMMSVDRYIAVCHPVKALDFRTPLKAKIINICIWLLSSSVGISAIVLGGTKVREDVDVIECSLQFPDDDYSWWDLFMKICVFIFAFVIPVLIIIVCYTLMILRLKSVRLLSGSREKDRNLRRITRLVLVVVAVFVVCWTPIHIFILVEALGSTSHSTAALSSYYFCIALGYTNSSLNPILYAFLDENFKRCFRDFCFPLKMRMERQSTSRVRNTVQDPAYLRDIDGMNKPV
T1 sequence (P35372 whole entry): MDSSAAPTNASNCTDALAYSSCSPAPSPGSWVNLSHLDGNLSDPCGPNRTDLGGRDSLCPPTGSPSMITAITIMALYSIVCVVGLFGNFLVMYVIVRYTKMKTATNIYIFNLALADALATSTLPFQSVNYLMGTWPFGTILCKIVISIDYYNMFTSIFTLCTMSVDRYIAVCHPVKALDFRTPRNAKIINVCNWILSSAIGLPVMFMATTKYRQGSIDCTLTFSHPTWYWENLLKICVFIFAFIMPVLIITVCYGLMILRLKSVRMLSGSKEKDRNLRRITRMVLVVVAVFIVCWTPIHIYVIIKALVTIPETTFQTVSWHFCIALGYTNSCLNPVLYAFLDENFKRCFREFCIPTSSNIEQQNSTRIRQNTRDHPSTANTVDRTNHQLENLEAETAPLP

Compound | Ki [1] | Ki [2] | Ki [3] | also measured
Deltorphin II | 3.3 nM | > 1000 nM | > 1000 nM | –
Dynorphin A (1–13) | > 1000 nM | 0.98 nM | 31 nM | –
O=C1/C(=C/c2ccccc2)C[C@@]2(O)[C@H]3Cc4ccc(O)c5c4[C@@]2(CCN3CC2CC2)[C@H]1O5 [BNTX] | 0.66 nM | 55 nM | 18 nM | DMR agonist activity classification, MOR [4]: off-target; DMR agonist activity classification, KOR [5]: off-target
CN(C(=O)Cc1ccc(Cl)c(Cl)c1)C(CN1CCCC1)c1cccc(OCC(=O)O)c1 (stereo not drawn) [ICI 204,448] | > 1000 nM | 2.69 nM | > 1000 nM | –
Oc1ccc2c3c1O[C@H]1c4[nH]c5c(c4C[C@@]4(O)[C@@H](C2)N(CC2CC2)CC[C@]314)C[C@@]1(O)[C@H]2Cc3ccc(O)c4c3[C@@]1(CCN2CC1CC1)[C@H]5O4 [Nor-Binaltorphimine] | – | – | – | blockage of the DAMGO response [6]: partial blockage; DMR under all eight assay conditions [7]: absence of any DMR; also recorded: did not trigger any DMR response under any conditions
O=C(Cc1ccc(Cl)c(Cl)c1)N1CCCCC1CN1CCCC1 (stereo not drawn) [BRL-52537] | – | 0.24 nM | 1560 nM | IC50 [8]: 4.1 ± 0.23 nM; ligand DMR in PTX-pretreated cells [7]: detectable P-DMR; DMR agonist activity classification, KOR [5]: Full agonist; DMR response at 9 min poststimulation [5]: 213±21 pm; saturable DMR amplitude, first phase of biphasic dose response [5]: 120±6 pm; saturable DMR amplitude, second phase of biphasic dose response [5]: 207±13 pm; EC50 [5, 9]: 0.0356 ± 0.0031 nM; EC50 [5, 10]: 26 ± 1.9 nM
CN(C(=O)Cc1ccc(Cl)c(Cl)c1)[C@H](CN1CCCC1)c1cccc(N=C=S)c1 [DIPPA] | – | – | – | IC50 ([1]; read-out: IC50, affinity binding to the DOR): > 1000 nM; IC50 ([2]; read-out: IC50, affinity binding to the KOR): 2.21 nM; IC50 ([3]; read-out: IC50, affinity binding to the MOR): 1800 nM; IC50 [8]: 455 ± 32.3 nM; ligand DMR in PTX-pretreated cells [7]: detectable P-DMR; DMR agonist activity classification, KOR [5]: Full agonist; saturable DMR amplitude, first phase of biphasic dose response [5]: 138±8 pm; saturable DMR amplitude, second phase of biphasic dose response [5]: 205±9 pm; EC50 [5, 9]: 13.4 ± 1.5 nM; EC50 [5, 10]: 240 ± 11.2 nM
Dynorphin A (2–13) | – | 680 nM | – | –
Dynorphin A (1–8) (YGGFLRRI; Dynorphin A(1-8); UniProt P01213 207-214, looked up, fragment) | 32.6 nM | – | 22.3 nM | DMR agonist activity classification, MOR [4]: Full agonist
Oc1ccc2c3c1O[C@H]1c4oc5ccccc5c4C[C@@]4(O)[C@@H](C2)N(CC2CC2)CC[C@]314 [Naltriben] | 0.4 nM | > 10000 nM | 80.8 nM | blockage of the DAMGO response [6]: partial blockage
COC(=O)/C=C/C(=O)N[C@@H]1CC[C@@]2(O)[C@H]3Cc4ccc(O)c5c4[C@@]2(CCN3CC2CC2)[C@H]1O5 [β-Funaltrexamine] | 48 nM | 2.8 nM | 0.33 nM | –
C=CCN1CCC2(C)c3cc(O)ccc3CC1C2C (stereo not drawn) [SKF10047] | 19000 nM | 1600 nM | 1900 nM | –
DTLET | 22 nM | > 10000 nM | – | DMR agonist activity classification, MOR [4]: Full agonist
C=CC[N+]1(C)CC[C@]23c4c5ccc(O)c4O[C@H]2C(=O)CC[C@@]3(O)[C@H]1C5 (stereo partly drawn) [Naloxone methiodide] | 204 nM | 1010 nM | 28.9 nM | blockage of the DAMGO response [6]: partial blockage
Dynorphin B | 12.8 nM | – | – | –
Oc1ccc2c3c1O[C@H]1c4[nH]c5ccccc5c4C[C@@]4(O)[C@@H](C2)N(CC2CC2)CC[C@]314 [Naltrindole] | – | – | – | blockage of the DAMGO response [6]: partial blockage
C[C@@H](NC(=O)[C@@H](N)Cc1ccc(O)cc1)C(=O)NCC(=O)N(C)[C@@H](Cc1ccccc1)C(=O)NCCO [DAMGO] | – | > 20000 nM | – | DMR agonist activity classification, MOR [4]: Full agonist; DMR response at 9 min poststimulation [4]: 240±17 pm; saturable DMR amplitude, first phase of biphasic dose response [5]: 139±6 pm; saturable DMR amplitude, second phase of biphasic dose response [5]: 200±8 pm
Oc1ccc2c3c1O[C@H]1c4c(c5ccccc5n4Cc4ccccc4)C[C@@]4(O)[C@@H](C2)N(CC2CC2)CC[C@]314 [N-Benzylnaltrindole] | – | – | – | blockage of the DAMGO response [6]: partial blockage; IC50 ratio at the DOR [1]: 459; IC50 ratio at the KOR [2]: 1.3; IC50 ratio at the MOR [3]: 11.2
NC(=O)[C@H](Cc1ccccc1)NC(=O)[C@H](Cc1ccccc1)NC(=O)[C@@H]1CCCN1C(=O)[C@@H](N)Cc1ccc(O)cc1 [Endomorphin-2] | > 500 nM | – | 0.43 nM | –
COc1ccc2c3c1O[C@H]1[C@@H](O)C=C[C@H]4[C@@H](C2)NCC[C@@]341 [(−)-Norcodeine] | – | – | 267 nM | –
COC(=O)[C@@H]1C[C@H](OC(C)=O)C(=O)[C@H]2[C@@]1(C)CC[C@H]1C(=O)O[C@H](c3ccoc3)C[C@]21C [Salvinorin A] | – | – | – | EC50 ([2]; read-out: EC50 at the KOR): […]; EC50 ([3]; read-out: EC50 at the MOR): […]; ligand DMR in PTX-pretreated cells [7]: detectable P-DMR; DMR agonist activity classification, KOR [5]: Full agonist
COC(=O)N1CCN(C(=O)Cc2ccc(Cl)c(Cl)c2)C(CN2CCCC2)C1 (stereo not drawn) [GR 89696] | – | 41.7 nM | – | ligand DMR in PTX-pretreated cells [7]: detectable P-DMR; DMR agonist activity classification, KOR [5]: Full agonist
Nociceptin | > 1000 nM | > 1000 nM | 270 nM | –
C=CCN1CC[C@]23CCCC[C@H]2[C@H]1Cc1ccc(O)cc13 [Levallorphan] | 1 nM | 0.3 nM | 1.7 nM | –
DSLET | – | – | 120 nM | DMR agonist activity classification, MOR [4]: Full agonist
α-Neoendorphin (YGGFLRKYPK; Alpha-neoendorphin; UniProt P01213 175-184, looked up) [Kappa agonist] | 1.17 nM | 1.4 nM | – | ligand DMR in PTX-pretreated cells [7]: detectable P-DMR; DMR agonist activity classification, KOR [5]: Full agonist
CC1(C)SSC(C)(C)[C@@H](NC(=O)[C@@H](N)Cc2ccc(O)cc2)C(=O)NCC(=O)N[C@@H](Cc2ccccc2)C(=O)N[C@H]1C(=O)O [DPDPE] | – | 12000 nM | 600 nM | –
DADLE | 0.63 nM | 1900 nM | 150 nM | –
NC(=O)[C@H](Cc1ccccc1)NC(=O)[C@H](Cc1c[nH]c2ccccc12)NC(=O)[C@@H]1CCCN1C(=O)[C@@H](N)Cc1ccc(O)cc1 [Endomorphin-1] | > 500 nM | – | – | –
(Met5)-Enkephalin | 2 nM | 2.9 nM | 3 nM | –
